test system: asymmetric di-methyl PABP1 in RKO cells; experiment: RKO methylation assay, In Cell Western (ICW) for asymmetric di-methyl PABP1; assay type: cell-based; settings: Homo sapiens, RKO, Cellular potencies, ICW PABP1me2a
Excerpt: RKO adherent cells were purchased from ATCC (American Type Culture Collection), Manassas, Va., USA. DMEM/Glutamax medium, penicillin-streptomycin, heat inactivated fetal bovine serum, 0.05% trypsin and D-PBS were purchased from Life Technologies, Grand Island, N.Y., USA. Odyssey blocking buffer, 800 CW goat anti-rabbit IgG (H+L) antibody, and Licor Odyssey infrared scanner were purchased from Licor Biosciences, Lincoln, Nebr., USA. Asymmetric di-methyl PABP1 antibody was purchased from Cell Signaling Technology, Danvers, Mass., USA. Methanol was purchased from VWR, Franklin, Mass., USA. 10% Tween 20 was purchased from KPL, Inc., Gaithersburg, Md., USA. Paraformaldehyde (PFA) was purchased from EM Sciences. DRAQ5 was purchased from Biostatus Limited, Leicestershire, UK.
RKO adherent cells were maintained in growth medium (DMEM/Glutamax medium supplemented with 10% v/v heat inactivated fetal bovine serum and 100 units/mL penicillin-streptomycin) and cultured at 37° C. under 5% CO2.
Cell treatment, In Cell Western (ICW) for detection of asymmetric di-methyl PABP1 and DNA content: RKO cells were seeded in assay medium at a concentration of 30,000 cells per mL to a poly-D-lysine coated 384 well culture plate (BD Biosciences 356697) with 50 VL per well. Compound (100 nL) from a 96-well source plate was added directly to 384 well cell plate. Plates were incubated at 37° C., 5% CO2 for 48 hours. After two days of incubation, plates were brought to room temperature outside of the incubator for ten minutes and blotted on paper towels to remove cell media. Cells were fixed for 20 minutes at room temperature by adding 50 ul of 8% PFA followed by aspiration of supernatant with the Biotek EL406 plate washer. Cells were then permeabilized by addition of 50 μL of ice cold 100% methanol directly to each well and incubated for 30 min at room temperature. After 30 min, plates were transferred to a Biotek EL406 plate washer and washed 2 times with 100 μL per well of wash buffer (1×PBS). Next 60 μL per well of Odyssey blocking buffer (Odyssey Buffer with 0.1% Tween 20 (v/v)) were added to each plate and incubated 1 hour at room temperature. Blocking buffer was removed and 20 μL per well of primary antibody was added (asymmetric-methyl PABP1) diluted 1:400 in Odyssey buffer with 0.1% Tween 20 (v/v)) and plates were incubated overnight (16 hours) at 4° C. Plates were washed 5 times with 100 μL per well of wash buffer. Next 20 μL per well of secondary antibody was added (1:800 800 CW goat anti-rabbit IgG (H+L) antibody, 1:2000 DRAQ5 in Odyssey buffer with 0.1% Tween 20 (v/v)) and incubated for 1 hour at room temperature. The plates were washed 5 times with 100 μL per well wash buffer then 2 times with 100 μL per well of water. Plates were allowed to dry at room temperature then imaged on the Licor Odyssey machine which measures integrated intensity at 700 nm and 800 nm wavelengths. Both 700 and 800 channels were scanned.
First, the ratio for each well was determined by:
Each plate included fourteen control wells of DMSO only treatment (minimum inhibition) as well as fourteen control wells for maximum inhibition treated with 20 μM of a reference compound. The average of the ratio values for each control type was calculated and used to determine the percent […] for each test well in the plate. Reference compound was serially diluted three-fold in DMSO for a total of nine test concentrations, beginning at 20 μM.
Percent inhibition was determined and IC50 curves were generated using triplicate wells per concentration of compound. […]

First: CNCC(O)COc1cccc(-c2nc(N[C@H]3CC[C@H](O)CC3)cc(-c3c(C)noc3C)n2)c1 (stereo partly drawn) [Example 32-1a]
Second: CNCC(O)COc1cccc(-c2nc(N[C@H]3CC[C@@H](O)CC3)cc(-c3c(C)noc3C)n2)c1 (stereo partly drawn) [Example 33-1a]
The IC50 of the first is higher: 10 to 20 µM for the first, 5 to 10 µM for the second. The second is the more potent here.

CNC[C@@H](O)COc1cccc(-c2nc(NC3CCN(C(=O)OC)C(C)C3)c(C)c(-c3c(C)noc3C)n2)c1 (stereo partly drawn) [Example 32-3] and CNC[C@H](O)COc1cccc(-c2nc(NC3CCN(C(=O)OC)C(C)C3)c(C)c(-c3c(C)noc3C)n2)c1 (stereo partly drawn) [Example 33-3] cannot be ordered by IC50: < 5 µM for the first, < 5 µM for the second.

Compared with CNCC(O)COc1cccc(-c2nc(NC3CCOCC3)cc(-c3c(C)noc3C)n2)c1 (stereo not drawn) [Example 33-1], CNCC(O)COc1cccc(-c2nc(N[C@@H]3CC[C@@H](O)C3)cc(-c3c(C)noc3C)n2)c1 (stereo partly drawn) [Example 44-1a] is higher in IC50: < 5 µM for the first, 5 to 10 µM for the second. The first is the more potent here.

CNCC(O)COc1cccc(-c2nc(-c3c(C)noc3C)c(C)c(N(C)C3CCOCC3)n2)c1 (stereo not drawn) [Example 34-1a] and CNC[C@H](O)COc1cccc(-c2nc(NC3CCOCC3)c(C)c(-c3c(C)noc3C)n2)c1 [Example 55-1a] cannot be ordered by IC50: < 5 µM for the first, < 5 µM for the second.

Compared with CNCC(O)COc1cccc(-c2nc(-c3c(C)noc3C)c(C)c(N3CCn4ccnc4C3)n2)c1 (stereo not drawn) [Example 34-3], CNCC(O)COc1cccc(-c2nc(-c3c(C)noc3C)c(C)c(N3Cc4cccnc4C3)n2)c1 (stereo not drawn) [Example 35-3] is lower in IC50: 5 to 10 µM for the first, < 5 µM for the second.

First: CNCC(O)COc1cccc(-c2nc(-c3c(C)noc3C)cc(N3CCNC(C)C3)n2)c1 (stereo not drawn) [Example 35-1a]
Second: CNCC(O)COc1cccc(-c2nc(-c3c(C)noc3C)cc(N3CCN[C@@H](C)C3)n2)c1 (stereo partly drawn) [Example 40-1a]
The IC50 of the first is lower: 5 to 10 µM for the first, 10 to 20 µM for the second. The first is the more potent here.

Compared with CNCC(O)COc1cccc(-c2nc(-c3c(C)noc3C)cc(N3CCNC(C)(C)C3)n2)c1 (stereo not drawn) [Example 36-1a], CNCC(O)COc1cccc(-c2nc(-c3c(C)noc3C)cc(N3CCN(C(C)=O)[C@@H](C)C3)n2)c1 (stereo partly drawn) [Example 38-1a] is lower in IC50: 10 to 20 µM for the first, 5 to 10 µM for the second.

CNCC(O)COc1ccc(Cl)c(-c2nc(O[C@H]3CCN(C(=O)OC)[C@@H](C)C3)c(C)c(-c3c(C)noc3C)n2)c1 (stereo partly drawn) [Example 36-3] and CNC[C@H](O)COc1ccc(Cl)c(-c2nc(NC[C@H]3COCCN3C(=O)OC)c(C)c(-c3c(C)noc3C)n2)c1 [Example 58-3] cannot be ordered by IC50: < 5 µM for the first, < 5 µM for the second.

CNCC(O)COc1ccc(Cl)c(-c2nc(NC3CC4(CCN(C(=O)OC)CC4)C3)c(C)c(-c3c(C)noc3C)n2)c1 (stereo not drawn) [Example 37-3] and CNCC(O)COc1ccc(Cl)c(-c2nc(NC3CC4(C3)CN(C(=O)OC)C4)c(C)c(-c3c(C)noc3C)n2)c1 (stereo not drawn) [Example 45-3] cannot be ordered by IC50: < 5 µM for the first, < 5 µM for the second.

CNCC(O)COc1ccc(Cl)c(-c2nc(NC3CC(O)(C(F)(F)F)C3)c(C)c(-c3c(C)noc3C)n2)c1 (stereo not drawn) [Example 38-3] and CNCC(O)COc1ccc(Cl)c(-c2nc(N[C@H]3CCC[C@@H](O)C3)c(C)c(-c3c(C)noc3C)n2)c1 (stereo partly drawn) [Example 39-3] cannot be ordered by IC50: < 5 µM for the first, < 5 µM for the second.

First: CNCC(O)COc1cccc(-c2nc(-c3c(C)noc3C)cc(N3CCN(C(C)=O)C[C@H]3C)n2)c1 (stereo partly drawn) [Example 39-1a]
Second: CNCC(O)COc1cccc(-c2nc(N[C@H]3C[C@@H](O)C3)cc(-c3c(C)noc3C)n2)c1 (stereo partly drawn) [Example 41-1a]
The IC50 of the first is lower: 5 to 10 µM for the first, 10 to 20 µM for the second. The first is the more potent here.

Compared with CNCC(O)COc1cccc(-c2nc(-c3ccnc(C)c3)cc(N(C)C3CCOCC3)n2)c1 (stereo not drawn) [Example 40-1], CNCC(O)COc1cccc(-c2nc(NC3CCOCC3)cc(-c3cnn(CC(C)C)c3)n2)c1 (stereo not drawn) [Example 51-1] is higher in IC50: 5 to 10 µM for the first, 10 to 20 µM for the second. The first is the more potent here.

CNC[C@@H](O)COc1ccc(F)c(-c2nc(NC3CCN(C(=O)OC)CC3)c(C)c(-c3c(C)noc3C)n2)c1 [Example 40-3] and CNCC(O)COc1ccc(Cl)c(-c2nc(N[C@H]3CCC[C@@H](OC)C3)c(C)c(-c3c(C)noc3C)n2)c1 (stereo partly drawn) [Example 57-3] cannot be ordered by IC50: < 5 µM for the first, < 5 µM for the second.

First: CNCC(O)COc1cccc(-c2nc(-c3cnn(CC(C)C)c3)cc(N(C)CCC#N)n2)c1 (stereo not drawn) [Example 41-1]
Second: CNCC(O)COc1cccc(-c2nc(-c3c(C)noc3C)cc(N(C)c3cncnc3)n2)c1 (stereo not drawn) [Example 50-1a]
The IC50 of the first is higher: 10 to 20 µM for the first, < 5 µM for the second. The second is the more potent here.

CNCC(O)COc1ccc(Cl)c(-c2nc(NCC3COCCO3)c(C)c(-c3c(C)noc3C)n2)c1 (stereo not drawn) [Example 41-3] and CCOC(=O)N1CCOC[C@@H]1CNc1nc(-c2cc(OC[C@@H](O)CNC)ccc2Cl)nc(-c2c(C)noc2C)c1C [Example 42-3] cannot be ordered by IC50: < 5 µM for the first, < 5 µM for the second.

CNCC(O)COc1cccc(-c2nc(-c3c(C)noc3C)cc(N3CCC4(CC3)NC(=O)NC4=O)n2)c1 (stereo not drawn) [Example 42-1a] and CNCC(O)COc1cccc(-c2nc(NC3CCS(=O)(=O)CC3)cc(-c3c(C)noc3C)n2)c1 (stereo not drawn) [Example 60-1a] fall in the same range of IC50: 10 to 20 µM for the first, 10 to 20 µM for the second.

Compared with CNCC(O)COc1cccc(-c2nc(N[C@H]3C[C@H](O)C3)cc(-c3c(C)noc3C)n2)c1 (stereo partly drawn) [Example 43-1a], CNCC(O)COc1cccc(-c2nc(NC3CC(C(=O)OC)C3)cc(-c3c(C)noc3C)n2)c1 (stereo not drawn) [Example 45-1a] is lower in IC50: 10 to 20 µM for the first, < 5 µM for the second. The second is the more potent here.

CNC[C@H](O)COc1ccc(Cl)c(-c2nc(N[C@H]3CCN(C4CC4)C[C@H]3F)c(C)c(-c3c(C)noc3C)n2)c1 [Example 43-3] and CNC[C@@H](O)COc1ccc(Cl)c(-c2nc(N[C@H]3CCN(C4CC4)C[C@H]3F)c(C)c(-c3c(C)noc3C)n2)c1 [Example 44-3] cannot be ordered by IC50: < 5 µM for the first, < 5 µM for the second.

CNCC(O)COc1ccc(Cl)c(-c2nc(NC3CC(C)N(C(=O)OC)C(C)C3)c(C)c(-c3c(C)noc3C)n2)c1 (stereo not drawn) [Example 46-3] and CNC[C@H](O)COc1ccc(Cl)c(-c2nc(N[C@H]3C[C@H](OC)C3)c(C)c(-c3c(C)noc3C)n2)c1 [Example 53-3] cannot be ordered by IC50: < 5 µM for the first, < 5 µM for the second.

CNCC(O)COc1cc(Cl)cc(-c2nc(NC3CCOCC3)c(C)c(-c3c(C)noc3C)n2)c1 (stereo not drawn) [Example 47-1a] and CNC[C@@H](O)COc1cccc(-c2nc(NC3CCOCC3)c(C)c(-c3c(C)noc3C)n2)c1 [Example 56-1a] cannot be ordered by IC50: < 5 µM for the first, < 5 µM for the second.

CNCC(O)COc1cccc(-c2nc(-c3c(C)noc3C)c(C)c(N3CCNC(C(F)F)C3)n2)c1 (stereo not drawn) [Example 47-3] and CNCC(O)COc1cccc(-c2nc(-c3c(C)noc3C)c(C)c(N3CCS(=O)(=O)CC3)n2)c1 (stereo not drawn) [Example 57-1a] fall in the same range of IC50: 10 to 20 µM for the first, 10 to 20 µM for the second.

CCN1CCC[C@H]1CNc1nc(-c2cc(OC[C@@H](O)CNC)ccc2Cl)nc(-c2c(C)noc2C)c1C [Example 48-3] and CCOC(=O)N1CCC[C@@H]1CNc1nc(-c2cc(OC[C@@H](O)CNC)ccc2Cl)nc(-c2c(C)noc2C)c1C [Example 49-3] cannot be ordered by IC50: < 5 µM for the first, < 5 µM for the second.

First: CNCC(O)COc1cccc(-c2nc(Nc3cnc(C)nc3)cc(-c3c(C)noc3C)n2)c1 (stereo not drawn) [Example 49-1a]
Second: CNCC(O)COc1cccc(-c2nc(-c3c(C)noc3C)cc(N(C)c3cnc(OC)nc3)n2)c1 (stereo not drawn) [Example 51-1a]
The IC50 of the first is lower: 5 to 10 µM for the first, 10 to 20 µM for the second.

CNCC(O)COc1cccc(-c2nc(-c3c(C)noc3C)cc(N(CCOC)CCOC)n2)c1 (stereo not drawn) [Example 52-1] and CNCC(O)COc1cccc(-c2nc(SC)c(C)c(-c3c(C)noc3C)n2)c1 (stereo not drawn) [Example 53-1a] fall in the same range of IC50: 10 to 20 µM for the first, 10 to 20 µM for the second.

First: Cc1noc(C)c1-c1nc(-c2cccc(OCC(O)CN)c2)nc(NC2CCOCC2)c1C (stereo not drawn) [Example 54-1a]
Second: CNCC(O)COc1cccc(-c2nc(NC3CCS(=O)(=O)CC3)c(C)c(-c3c(C)noc3C)n2)c1 (stereo not drawn) [Example 59-1a]
The IC50 of the first is lower: < 5 µM for the first, 10 to 20 µM for the second.

CNC[C@H](O)COc1ccc(Cl)c(-c2nc(N[C@H]3C[C@@H](OC)C3)c(C)c(-c3c(C)noc3C)n2)c1 [Example 54-3] and CCOC(=O)N1CCOC[C@@H]1CNc1nc(-c2cc(OC[C@H](O)CNC)ccc2Cl)nc(-c2c(C)noc2C)c1Cl [Example 56-3] cannot be ordered by IC50: < 5 µM for the first, < 5 µM for the second.

CNC[C@H](O)COc1ccc(Cl)c(-c2nc(-c3c(C)noc3C)c(C)c(N3CC4(CCN(C5CC5)CC4)C3)n2)c1 [Example 55-3] and CCOC(=O)N1CCOC[C@H]1CNc1nc(-c2cc(OC[C@@H](O)CNC)ccc2F)nc(-c2c(C)noc2C)c1C [Example 59-3] cannot be ordered by IC50: < 5 µM for the first, < 5 µM for the second.

Source: patent publication US10633389B2, “CARM1 inhibitors and uses thereof” (Epizyme, Inc., priority 2013, dated 2020)
